Legend:
[1] = system: phosphorylation of Ser15 of p53 (ATM and ATR); assay: p53 Ser15 phosphorylation in RKO cells treated with synoviolin siRNA, with or without caffeine (Western blotting); assay type: cell-based, human; conditions: caffeine 10 mM, both 12 h and 24 h after the addition, FIG. 5
Protocol: RKO cells (human colon cancer cells), which had been confirmed to express wild-type p53, were seeded on a 60 mm plate at 1.0×10^5 cells/plate/2 mL), and were transfected with siRNA oligonucleotides against GFP and synoviolin, using Oligofectamine. After 72 h, caffeine (10 mM), an inhibitor of ATM (ataxia-telangiectasia mutated) and ATR (an ATM and Rad3-related), which are important in the phosphorylation of […], was added. Then, Western blotting was performed using Phospho-p53 ([…]), an antibody to the phosphorylated […]-p53.

[2] = system: rheumatoid arthritis synovial cells (RASCs); assay: suppression of RASC proliferation (MTT); assay type: cell-based; conditions: Synovial cell, after 72 h of culture, FIGS. 23 and 24, read-out: IC50, RASC cell survival
Protocol: The low molecular weight compounds termed No. 32 (Compound X) and No. 38 (Compound Y) were used as specimens. HFLS-RA medium (Cell Applications Inc.; Code CA40405) was used for RASC. RASCs were seeded in a 96-well microtiter plate at 1,000 cells/well, and cultured for 24 h in DMEM containing 10% fetal bovine serum (Kohjin Bio). Then, twofold serial dilutions of the specimens, beginning from a final concentration of 50 μM, were added to the cells. After 1, 24, and 48 h, 3-(4,5-dimethylthiazol-2-yl)-2,5-diphenyltetrazoliumbromide (MTT) was added to a final concentration of 0.5 mg/mL. After 2 h, the medium was aspirated, and the remaining formazan was dissolved with 50 μL of dimethyl sulfoxide. Then, absorbances at […] were measured. The absorbances of the group treated with the specimens were used to calculate cell survival rates, with 0% representing the absorbance of the group without cells or specimen, and 100% representing the absorbance of the group without specimen.

[3] = system: RKO cells; assay: cytotoxicity / cell survival rate in RKO cells (WST-8); assay type: cell-based, human; conditions: cultured 24-72 h with compound, FIG. 18
Protocol: RKO cells (a human colon carcinoma cell line; ATCC: CRL-2577) were seeded in Eagle's Minimum Essential Medium containing 10% fetal bovine serum in a 96-well microtiter plate (Falcon; non-coated) at 1,000 cells/100 μL/well, and cultured for 24 h. Compounds X and Y were dissolved in Eagle's Minimum Essential Medium containing 10% fetal bovine serum, and 10 μL amounts were added to wells. The cells were then cultured for 24-72 h.
After culture, WST-8 (2-(2-methoxy-4-nitrophenyl)-3-(4-nitrophenyl)-5-(2,4-disulfophenyl)-2H-tetrazolium, monosodium salt) was added to each well. After 2-4 h, absorbances at 450 nm were measured (reference wavelength: […]) and cell survival rates were calculated (FIG. 18).
The calculation method was based on the following formula: […]

[4] = system: T1, synoviolin (MBP-Syno ΔTM-His), substrate GST-p53 (Homo sapiens); assay: in vitro ubiquitination reaction of GST-p53 by MBP-Syno ΔTM-His (Western blot, anti-p53 FL393); assay type: biochemical; conditions: 75, 150, 300 or 600 μM compound; FIG. 17B
T1 construct: GST-SynoΔTM 236-617:pGEX-5-1/S ΔTM; His tag (C); made in house; host or cells: E. coli
Protocol: E. coli (BL21) hosting pGEX/p53 was cultured in 500 mL of LB medium. After induction with IPTG (1 mM at 30° C. for 6 h), an extract was prepared from the culture solution, using buffer containing 0.5% NP-40. From the E. coli extract, GST-p53 was purified using a GSH-Sepharose resin in the presence of 0.1% NP-40. […] After the reaction, proteins were separated by 7.5% SDS-PAGE, and transferred onto a PVDF membrane, prior to detection of the p53 protein on the membrane using anti-p53 antibodies (FL393 or DO-1). Reaction and detection were performed with variations in the amount of GST-p53 added.
In the presence of GST-p53, varying concentrations (75 μM, 150 μM, 300 μM, or 600 μM) of compounds X and Y were added to the in vitro ubiquitination reaction system using MBP-Syno ΔTM-His. After reaction, proteins were separated by 7.5% SDS-PAGE, transferred onto a PVDF membrane, and then detected using the anti-p53 antibody FL393 (Santa Cruz Biotechnology).

[5] = system: p53 protein; assay: p53 protein expression level in RKO cells (Western blotting); assay type: cell-based, human; conditions: 5, 10 or 20 μM, 24 h, FIG. 19
Protocol: Fractions of homogenized cells were prepared from various cells using a cell homogenizing solution (50 mM Tris-HCl [pH 8.0], 150 mM NaCl, 1% NP40, 1 mM PMSF, 0.1% sodium dodecyl sulfate (SDS), 2 μg/mL leupeptin, 2 μg/mL aprotinin, and 2 μg/mL pepstatin). Then, fractions of homogenized cells were separated by SDS-PAGE. After SDS-PAGE, the cell-derived proteins were transferred onto a nitrocellulose (NC) membrane by an electroblotting method. This NC membrane was blocked with Tris buffered saline (TBS) with 5% skim milk at room temperature for 1 h, and then immunoreacted with anti-p53 antibody C-terminal aa; 195-393 or FL393, both of which were diluted in TBS with 5% skim milk, at room temperature for 1 h. The NC membrane after reaction was washed with 0.1% Tween 20/TBS, and then immunoreacted with horse radish peroxidase (HRP)-labeled anti-rabbit IgG antibody as secondary antibody, at room temperature for 1 h. The membrane was washed with 0.1% Tween 20/TBS, and HRP activity was sought to detect the target antigen. An ECL kit (Amersham) was used to detect HRP activity […]).
RKO cells were treated with compound Y, and changes in p53 protein expression level were examined by Western blotting. Specifically, RKO cells were seeded in 10 cm plates at 5.0×10^5 cells/plate, and cultured for 24 h. […]

[6] = system: synoviolin and p53 mRNA; assay: mRNA levels of synoviolin and p53 in RASCs under synoviolin RNAi (TaqMan); assay type: cell-based; conditions: 25 nM siRNA, cultured 4 d, 18S rRNA as control, FIG. 14
Protocol: RASCs were seeded on a 10 cm dish at 30,000 cells/dish, and were transfected with 25 nM of siRNA (No. 589) according to a routine method. The cells were then cultured for 4 d. During this period, cells were collected overtime to obtain mRNA. Random primers were used, with 1 μg of mRNA as a template, to perform reverse transcription reactions, and cDNAs were obtained. The obtained cDNAs were quantified using the ABI TaqMan Gene expression assay (GEX). The mRNA levels were calculated using 18S rRNA as control.
The GEX reagent target assay no. (Assay ID) is Hs00381211_m1 for synoviolin and Hs00153340_m1 for p53.

[7] = system: RA synovial cells; assay: cell cycle of RA synovial cells after synoviolin siRNA (flow cytometer); assay type: cell-based; conditions: 25 nM siRNA, FIG. 7
Protocol: RA synovial cells were seeded on a 10 cm dish at 9.0×10^4 cells/dish, and were transfected with synoviolin siRNA (final concentration 25 nM). Then, the cell cycle was monitored by flow cytometer.

T1 sequence (Q86TM6 236-617 E545G): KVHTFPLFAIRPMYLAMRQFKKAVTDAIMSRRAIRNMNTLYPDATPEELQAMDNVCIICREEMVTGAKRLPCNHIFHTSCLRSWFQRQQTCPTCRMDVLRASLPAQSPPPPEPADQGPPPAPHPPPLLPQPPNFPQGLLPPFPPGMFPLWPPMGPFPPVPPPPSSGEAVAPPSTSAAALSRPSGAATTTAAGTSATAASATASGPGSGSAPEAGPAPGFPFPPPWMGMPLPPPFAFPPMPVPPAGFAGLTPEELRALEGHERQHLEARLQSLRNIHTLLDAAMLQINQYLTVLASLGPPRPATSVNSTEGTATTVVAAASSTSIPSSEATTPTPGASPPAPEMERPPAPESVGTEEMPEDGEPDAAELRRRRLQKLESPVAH

In the case of `Cn1c(=O)c2c(ncn2C)n(C)c1=O` [caffeine], the “inhibition of the siRNA-enhanced phosphorylation of p53 Ser15” value [1] is reported as “completely inhibited”.
In the case of `CN(C)c1nc(N/N=C/c2cc([N+](=O)[O-])ccc2O)nc(Nc2ccc(F)cc2)n1` [compound Y], the IC50 [2] is reported as roughly 6 µM, the “cell proliferation / cell survival rate of RKO cells” value [3] is reported as “cell proliferation was suppressed” and the “inhibition of the GST-p53 ubiquitination reaction” value [4] is reported as “inhibited the GST-p53 ubiquitination reaction in a concentration-dependent manner”. The “p53 protein expression level” value [5] was “increased”.
For `COc1ccc(/C=N/Nc2nc(Nc3ccc([N+](=O)[O-])cc3)nc(N3CCN(C)CC3)n2)cc1OC` [compound X], the IC50 [2] was 20 µM, the “cell proliferation / cell survival rate of RKO cells” value [3] was “cell proliferation was suppressed” and the “inhibition of the GST-p53 ubiquitination reaction” value [4] was “inhibited the GST-p53 ubiquitination reaction in a concentration-dependent manner”.
For “h589: double-stranded RNA in which sense strand SEQ ID NO: 18 and antisense strand SEQ ID NO: 19 are annealed; synoviolin siRNA (sense GGUGUUCUUUGGGCAACUGTT; antisense CAGUUGCCCAAAGAACACCTT; chemistry not given here)”, the “level of p53 mRNA” value [6] was “unchanged”, the “level of synoviolin mRNA” value [6] was “decreased” and the cell cycle [7] was “delay in the cell cycle at the G0/G1 phase”.
